Publication PMC10861560, “Exploiting epigenetic targets to overcome taxane resistance in prostate cancer” (Cell Death & Disease, 2024)

Biological target: T1, ABCB1 (MDR1) (Homo sapiens, UniProt P08183)
T1 construct: endogenous full-length protein in intact Du145-DtxR cells, detected by western blot after heat shock
Assay: cellular thermal shift assay (CETSA), western blot
Assay type: cell-based
Details: 5 µM, intact Du145-DtxR cells, 1 h at 37 °C, heat shock 44-52 °C; positive control

T1 sequence (P08183 whole entry): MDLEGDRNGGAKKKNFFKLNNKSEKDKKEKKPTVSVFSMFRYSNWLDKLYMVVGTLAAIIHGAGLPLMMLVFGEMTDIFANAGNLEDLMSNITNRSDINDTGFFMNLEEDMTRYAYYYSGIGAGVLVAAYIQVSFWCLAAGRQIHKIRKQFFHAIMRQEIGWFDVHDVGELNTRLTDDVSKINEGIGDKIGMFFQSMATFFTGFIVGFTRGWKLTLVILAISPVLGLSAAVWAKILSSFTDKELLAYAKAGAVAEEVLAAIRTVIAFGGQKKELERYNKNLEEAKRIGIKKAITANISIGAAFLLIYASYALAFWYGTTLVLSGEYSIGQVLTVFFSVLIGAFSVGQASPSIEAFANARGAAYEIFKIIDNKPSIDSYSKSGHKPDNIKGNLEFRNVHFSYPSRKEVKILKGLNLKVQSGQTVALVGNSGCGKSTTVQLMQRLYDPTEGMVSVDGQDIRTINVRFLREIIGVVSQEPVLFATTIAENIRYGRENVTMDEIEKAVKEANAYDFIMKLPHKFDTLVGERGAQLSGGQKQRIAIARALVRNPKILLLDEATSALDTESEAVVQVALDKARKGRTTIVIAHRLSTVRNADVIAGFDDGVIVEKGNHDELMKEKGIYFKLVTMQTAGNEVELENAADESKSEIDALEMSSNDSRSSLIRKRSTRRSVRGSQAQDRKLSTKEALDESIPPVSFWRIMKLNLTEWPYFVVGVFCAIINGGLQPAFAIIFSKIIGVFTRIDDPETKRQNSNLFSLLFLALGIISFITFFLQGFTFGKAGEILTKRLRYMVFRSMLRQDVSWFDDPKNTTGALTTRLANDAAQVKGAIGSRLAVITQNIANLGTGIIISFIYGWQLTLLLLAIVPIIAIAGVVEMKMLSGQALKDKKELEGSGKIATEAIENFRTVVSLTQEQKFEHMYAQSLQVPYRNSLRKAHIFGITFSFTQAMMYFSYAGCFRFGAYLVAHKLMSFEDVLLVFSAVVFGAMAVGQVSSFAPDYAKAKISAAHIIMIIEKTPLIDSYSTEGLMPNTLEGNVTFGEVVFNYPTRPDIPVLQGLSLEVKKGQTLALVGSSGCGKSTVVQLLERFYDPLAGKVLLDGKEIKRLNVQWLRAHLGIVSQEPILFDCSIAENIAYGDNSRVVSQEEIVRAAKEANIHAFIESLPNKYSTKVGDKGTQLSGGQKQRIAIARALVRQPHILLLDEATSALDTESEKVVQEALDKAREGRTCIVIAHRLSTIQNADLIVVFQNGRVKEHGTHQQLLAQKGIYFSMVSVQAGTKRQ

Structure (SMILES): O[C@@H](COc1cccc2ncccc12)CN1CCN([C@@H]2c3ccccc3[C@@H]3[C@H](c4ccccc42)C3(F)F)CC1 [Zosuquidar]
- cellular thermal shift assay (CETSA), western blot: it showed an ABCB1-binding compared to DMSO (Fig. 3H)
